Reference: the supplement of paper PMC10307832

Columns and labels:
Experiment in all cases: relative viability (nuclei count vs DMSO), 5 days (fraction); higher = more cells survive
Carboplatin + Foretinib = compound: C1CC(C1)(C(=O)O)C(=O)O.[NH2-].[NH2-].[Pt+2] [Carboplatin] + COc1cc2c(Oc3ccc(NC(=O)C4(C(=O)Nc5ccc(F)cc5)CC4)cc3F)ccnc2cc1OCCCN1CCOCC1 [Foretinib] (partner 0.25 µM)
Procedure, shortened: (§1)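 After 5 days of treatment, lung cancer cells in 1536-well plates were fixed and stained in a single step (final 0.05% Triton X-100, 1% formaldehyde, 1 ug/ml Hoechst) and their nuclei counted on 4× images. Treatment had been applied by pin tool the day after seeding as one drug alone or as a fixed anchor-drug dose with five library-drug doses (not always all listed) in √10 steps. Relative viability is the nuclei count of treated wells divided by that of vehicle wells, and values are medians of duplicate plates.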

Carboplatin + Bortezomib = compound: C1CC(C1)(C(=O)O)C(=O)O.[NH2-].[NH2-].[Pt+2] [Carboplatin] + CC(C)C[C@H](NC(=O)[C@H](Cc1ccccc1)NC(=O)c1cnccn1)B(O)O [Bortezomib] (partner 0.002 µM)
Procedure, shortened: as §1

GSK126 + Tozasertib = compound: CC[C@H](C)N1C=C(C2=C(C=C(C=C21)C3=CN=C(C=C3)N4CCNCC4)C(=O)NCC5=C(C=C(NC5=O)C)C)C [GSK126] + Cc1cc(Nc2cc(N3CCN(C)CC3)nc(Sc3ccc(NC(=O)C4CC4)cc3)n2)n[nH]1 [Tozasertib] (partner 0.1 µM)
Procedure, shortened: as §1

MLN4924 + Vorinostat = compound: NS(=O)(=O)OC[C@@H]1C[C@@H](n2ccc3c(N[C@H]4CCc5ccccc54)ncnc32)C[C@@H]1O [MLN4924] + O=C(CCCCCCC(=O)Nc1ccccc1)NO [Vorinostat] (partner 1 µM)
Procedure, shortened: as §1

NCI-H2347
relative viability (Carboplatin + Foretinib; first compound 0.08 µM): 1.51
relative viability (Carboplatin + Foretinib; first compound 0.253 µM): 1.01
relative viability (Carboplatin + Foretinib; first compound 0.8 µM): 1.14
relative viability (Carboplatin + Foretinib; first compound 2.53 µM): 1.23
relative viability (Carboplatin + Foretinib; first compound 8 µM): 0.788
relative viability (Carboplatin + Bortezomib; first compound 0.08 µM): 1.22
relative viability (Carboplatin + Bortezomib; first compound 0.253 µM): 0.815
relative viability (Carboplatin + Bortezomib; first compound 0.8 µM): 1.13
relative viability (Carboplatin + Bortezomib; first compound 2.53 µM): 1.05
relative viability (Carboplatin + Bortezomib; first compound 8 µM): 0.768
relative viability (GSK126 + Tozasertib; first compound 0.08 µM): 0.664
relative viability (GSK126 + Tozasertib; first compound 0.253 µM): 0.603
relative viability (GSK126 + Tozasertib; first compound 0.8 µM): 0.635
relative viability (GSK126 + Tozasertib; first compound 2.53 µM): 0.597
relative viability (GSK126 + Tozasertib; first compound 8 µM): 0.444
relative viability (MLN4924 + Vorinostat; first compound 0.04 µM): 0.494
relative viability (MLN4924 + Vorinostat; first compound 0.1265 µM): 0.562
relative viability (MLN4924 + Vorinostat; first compound 0.4 µM): 0.433
relative viability (MLN4924 + Vorinostat; first compound 1.265 µM): 0.347
relative viability (MLN4924 + Vorinostat; first compound 4 µM): 0.327

NCI-H2405
relative viability (Carboplatin + Foretinib; first compound 0.08 µM): 1.15
relative viability (Carboplatin + Foretinib; first compound 0.253 µM): 1.09
relative viability (Carboplatin + Foretinib; first compound 0.8 µM): 0.983
relative viability (Carboplatin + Foretinib; first compound 2.53 µM): 0.958
relative viability (Carboplatin + Foretinib; first compound 8 µM): 0.952
relative viability (Carboplatin + Bortezomib; first compound 0.08 µM): 1.03
relative viability (Carboplatin + Bortezomib; first compound 0.253 µM): 1
relative viability (Carboplatin + Bortezomib; first compound 0.8 µM): 0.994
relative viability (Carboplatin + Bortezomib; first compound 2.53 µM): 0.912
relative viability (Carboplatin + Bortezomib; first compound 8 µM): 0.89
relative viability (GSK126 + Tozasertib; first compound 0.08 µM): 0.767
relative viability (GSK126 + Tozasertib; first compound 0.253 µM): 0.71
relative viability (GSK126 + Tozasertib; first compound 0.8 µM): 0.752
relative viability (GSK126 + Tozasertib; first compound 2.53 µM): 0.697
relative viability (GSK126 + Tozasertib; first compound 8 µM): 0.608
relative viability (MLN4924 + Vorinostat; first compound 0.04 µM): 0.861
relative viability (MLN4924 + Vorinostat; first compound 0.1265 µM): 0.849
relative viability (MLN4924 + Vorinostat; first compound 0.4 µM): 0.411
relative viability (MLN4924 + Vorinostat; first compound 1.265 µM): 0.181
relative viability (MLN4924 + Vorinostat; first compound 4 µM): 0.19

NCI-H3122
relative viability (Carboplatin + Foretinib; first compound 0.08 µM): 0.944
relative viability (Carboplatin + Foretinib; first compound 0.253 µM): 0.986
relative viability (Carboplatin + Foretinib; first compound 0.8 µM): 0.926
relative viability (Carboplatin + Foretinib; first compound 2.53 µM): 0.91
relative viability (Carboplatin + Foretinib; first compound 8 µM): 0.923
relative viability (Carboplatin + Bortezomib; first compound 0.08 µM): 1.07
relative viability (Carboplatin + Bortezomib; first compound 0.253 µM): 1.02
relative viability (Carboplatin + Bortezomib; first compound 0.8 µM): 1.01
relative viability (Carboplatin + Bortezomib; first compound 2.53 µM): 0.944
relative viability (Carboplatin + Bortezomib; first compound 8 µM): 0.96
relative viability (GSK126 + Tozasertib; first compound 0.08 µM): 0.423
relative viability (GSK126 + Tozasertib; first compound 0.253 µM): 0.393
relative viability (GSK126 + Tozasertib; first compound 0.8 µM): 0.367
relative viability (GSK126 + Tozasertib; first compound 2.53 µM): 0.33
relative viability (GSK126 + Tozasertib; first compound 8 µM): 0.344
relative viability (MLN4924 + Vorinostat; first compound 0.04 µM): 0.708
relative viability (MLN4924 + Vorinostat; first compound 0.1265 µM): 0.579
relative viability (MLN4924 + Vorinostat; first compound 0.4 µM): 0.232
relative viability (MLN4924 + Vorinostat; first compound 1.265 µM): 0.103
relative viability (MLN4924 + Vorinostat; first compound 4 µM): 0.0771

PC-3 [JPC-3]
relative viability (Carboplatin + Foretinib; first compound 0.08 µM): 1.08
relative viability (Carboplatin + Foretinib; first compound 0.253 µM): 1.03
relative viability (Carboplatin + Foretinib; first compound 0.8 µM): 1
relative viability (Carboplatin + Foretinib; first compound 2.53 µM): 1.05
relative viability (Carboplatin + Foretinib; first compound 8 µM): 0.933
relative viability (Carboplatin + Bortezomib; first compound 0.08 µM): 0.928
relative viability (Carboplatin + Bortezomib; first compound 0.253 µM): 0.81
relative viability (Carboplatin + Bortezomib; first compound 0.8 µM): 0.748
relative viability (Carboplatin + Bortezomib; first compound 2.53 µM): 0.798
relative viability (Carboplatin + Bortezomib; first compound 8 µM): 0.742
relative viability (GSK126 + Tozasertib; first compound 0.08 µM): 0.879
relative viability (GSK126 + Tozasertib; first compound 0.253 µM): 0.919
relative viability (GSK126 + Tozasertib; first compound 0.8 µM): 0.883
relative viability (GSK126 + Tozasertib; first compound 2.53 µM): 0.866
relative viability (GSK126 + Tozasertib; first compound 8 µM): 0.805
relative viability (MLN4924 + Vorinostat; first compound 0.04 µM): 0.735
relative viability (MLN4924 + Vorinostat; first compound 0.1265 µM): 0.787
relative viability (MLN4924 + Vorinostat; first compound 0.4 µM): 0.409
relative viability (MLN4924 + Vorinostat; first compound 1.265 µM): 0.338
relative viability (MLN4924 + Vorinostat; first compound 4 µM): 0.468

PC-14
relative viability (Carboplatin + Foretinib; first compound 0.08 µM): 0.945
relative viability (Carboplatin + Foretinib; first compound 0.253 µM): 0.885
relative viability (Carboplatin + Foretinib; first compound 0.8 µM): 0.942
relative viability (Carboplatin + Foretinib; first compound 2.53 µM): 0.905
relative viability (Carboplatin + Foretinib; first compound 8 µM): 0.694
relative viability (Carboplatin + Bortezomib; first compound 0.08 µM): 0.846
relative viability (Carboplatin + Bortezomib; first compound 0.253 µM): 0.845
relative viability (Carboplatin + Bortezomib; first compound 0.8 µM): 0.757
relative viability (Carboplatin + Bortezomib; first compound 2.53 µM): 0.868
relative viability (Carboplatin + Bortezomib; first compound 8 µM): 0.437
relative viability (GSK126 + Tozasertib; first compound 0.08 µM): 0.614
relative viability (GSK126 + Tozasertib; first compound 0.253 µM): 0.674
relative viability (GSK126 + Tozasertib; first compound 0.8 µM): 0.639
relative viability (GSK126 + Tozasertib; first compound 2.53 µM): 0.535
relative viability (GSK126 + Tozasertib; first compound 8 µM): 0.403
relative viability (MLN4924 + Vorinostat; first compound 0.04 µM): 0.81
relative viability (MLN4924 + Vorinostat; first compound 0.1265 µM): 0.781
relative viability (MLN4924 + Vorinostat; first compound 0.4 µM): 0.154
relative viability (MLN4924 + Vorinostat; first compound 1.265 µM): 0.0306
relative viability (MLN4924 + Vorinostat; first compound 4 µM): 0.0361

RERF-LC-KJ
relative viability (Carboplatin + Foretinib; first compound 0.08 µM): 0.933
relative viability (Carboplatin + Foretinib; first compound 0.253 µM): 0.874
relative viability (Carboplatin + Foretinib; first compound 0.8 µM): 0.956
relative viability (Carboplatin + Foretinib; first compound 2.53 µM): 0.772
relative viability (Carboplatin + Foretinib; first compound 8 µM): 0.713
relative viability (Carboplatin + Bortezomib; first compound 0.08 µM): 1.22
relative viability (Carboplatin + Bortezomib; first compound 0.253 µM): 1.2
relative viability (Carboplatin + Bortezomib; first compound 0.8 µM): 1.19
relative viability (Carboplatin + Bortezomib; first compound 2.53 µM): 1.18
relative viability (Carboplatin + Bortezomib; first compound 8 µM): 0.937
relative viability (GSK126 + Tozasertib; first compound 0.08 µM): 0.562
relative viability (GSK126 + Tozasertib; first compound 0.253 µM): 0.449
relative viability (GSK126 + Tozasertib; first compound 0.8 µM): 0.489
relative viability (GSK126 + Tozasertib; first compound 2.53 µM): 0.485
relative viability (GSK126 + Tozasertib; first compound 8 µM): 0.357
relative viability (MLN4924 + Vorinostat; first compound 0.04 µM): 0.579
relative viability (MLN4924 + Vorinostat; first compound 0.1265 µM): 0.328
relative viability (MLN4924 + Vorinostat; first compound 0.4 µM): 0.205
relative viability (MLN4924 + Vorinostat; first compound 1.265 µM): 0.192
relative viability (MLN4924 + Vorinostat; first compound 4 µM): 0.236

SK-LU-1
relative viability (Carboplatin + Foretinib; first compound 0.08 µM): 0.867
relative viability (Carboplatin + Foretinib; first compound 0.253 µM): 0.878
relative viability (Carboplatin + Foretinib; first compound 0.8 µM): 0.815
relative viability (Carboplatin + Foretinib; first compound 2.53 µM): 0.749
relative viability (Carboplatin + Foretinib; first compound 8 µM): 0.543
relative viability (Carboplatin + Bortezomib; first compound 0.08 µM): 1.79
relative viability (Carboplatin + Bortezomib; first compound 0.253 µM): 1.26
relative viability (Carboplatin + Bortezomib; first compound 0.8 µM): 1.44
relative viability (Carboplatin + Bortezomib; first compound 2.53 µM): 1.21
relative viability (Carboplatin + Bortezomib; first compound 8 µM): 0.582
relative viability (GSK126 + Tozasertib; first compound 0.08 µM): 0.293
relative viability (GSK126 + Tozasertib; first compound 0.253 µM): 0.357
relative viability (GSK126 + Tozasertib; first compound 0.8 µM): 0.366
relative viability (GSK126 + Tozasertib; first compound 2.53 µM): 0.321
relative viability (GSK126 + Tozasertib; first compound 8 µM): 0.331
relative viability (MLN4924 + Vorinostat; first compound 0.04 µM): 0.581
relative viability (MLN4924 + Vorinostat; first compound 0.1265 µM): 0.425
relative viability (MLN4924 + Vorinostat; first compound 0.4 µM): 0.161
relative viability (MLN4924 + Vorinostat; first compound 1.265 µM): 0.196
relative viability (MLN4924 + Vorinostat; first compound 4 µM): 0.244

SW 1573
relative viability (Carboplatin + Foretinib; first compound 0.08 µM): 0.883
relative viability (Carboplatin + Foretinib; first compound 0.253 µM): 1.03
relative viability (Carboplatin + Foretinib; first compound 0.8 µM): 1.01
relative viability (Carboplatin + Foretinib; first compound 2.53 µM): 0.901
relative viability (Carboplatin + Foretinib; first compound 8 µM): 0.799
relative viability (Carboplatin + Bortezomib; first compound 0.08 µM): 1.09
relative viability (Carboplatin + Bortezomib; first compound 0.253 µM): 1
relative viability (Carboplatin + Bortezomib; first compound 0.8 µM): 1.12
relative viability (Carboplatin + Bortezomib; first compound 2.53 µM): 1.05
relative viability (Carboplatin + Bortezomib; first compound 8 µM): 0.808
relative viability (GSK126 + Tozasertib; first compound 0.08 µM): 0.222
relative viability (GSK126 + Tozasertib; first compound 0.253 µM): 0.211
relative viability (GSK126 + Tozasertib; first compound 0.8 µM): 0.159
relative viability (GSK126 + Tozasertib; first compound 2.53 µM): 0.176
relative viability (GSK126 + Tozasertib; first compound 8 µM): 0.198
relative viability (MLN4924 + Vorinostat; first compound 0.04 µM): 0.48
relative viability (MLN4924 + Vorinostat; first compound 0.1265 µM): 0.521
relative viability (MLN4924 + Vorinostat; first compound 0.4 µM): 0.14
relative viability (MLN4924 + Vorinostat; first compound 1.265 µM): 0.0422
relative viability (MLN4924 + Vorinostat; first compound 4 µM): 0.0551
